Experimental data as given in ChEMBL document CHEMBL4359891, “Synthesis of polyfluoroalkyl sp2-iminosugar glycolipids and evaluation of their immunomodulatory properties towards anti-tumor, anti-leishmanial and anti-inflammatory therapies” (Eur J Med Chem, 2019).
Active and inactive are the calls of the source. The rule behind the calls is not given here.

Legend:
A549 = experiment: Antiproliferative activity against human A549 cells assessed as growth inhibition after 48 hrs by SRB assay; assay type: functional; conditions: A549, 48 h
HBL-100 = experiment: Antiproliferative activity against human HBL100 cells assessed as growth inhibition after 48 hrs by SRB assay; assay type: functional; conditions: HBL-100, 48 h
HeLa = experiment: Antiproliferative activity against human HeLa cells assessed as growth inhibition after 48 hrs by SRB assay; assay type: functional
SW1573 = experiment: Antiproliferative activity against human SW1573 cells assessed as growth inhibition after 48 hrs by SRB assay; assay type: functional; conditions: SW1573, 48 h
T47D = experiment: Antiproliferative activity against human T47D cells assessed as growth inhibition after 48 hrs by SRB assay; assay type: functional
WiDr = experiment: Antiproliferative activity against human WiDr cells assessed as growth inhibition after 48 hrs by SRB assay; assay type: functional
[1] = Critical aggregation concentration of compound by spectrofluorophotometric method; assay type: physicochemical
Leishmania donovani = experiment: Antileishmanial activity against intracellular amastigote stage of Leishmania donovani fused with LUC infected in human THP1 cells assessed as parasite growth inhibition after 72 hrs post infection by luciferase based assay; assay type: functional, organism-based; conditions: THP-1, 72 h
THP-1 = experiment: Cytotoxicity against human THP1 cells assessed as reduction in cell viability after 72 hrs by MTT assay; assay type: cell-based; conditions: THP-1, 72 h
BV-2 [2] = experiment: Cytotoxicity against mouse BV2 cells assessed as reduction in cell viability up to 10 uM by crystal violet staining based assay
BV-2 [3] = experiment: Antiinflammatory activity against mouse BV2 cells assessed as reduction in LPS-induced nitrite level at 1 to 10 uM by Griess assay; assay type: functional, cell-based
BV-2 [4] = experiment: Antiinflammatory activity against mouse BV2 cells assessed as reduction in LPS-induced iNOS protein expression at 10 uM by Western blot analysis; assay type: functional, cell-based
[5] = target: Mitogen-activated protein kinase 14 (Mus musculus) (UniProt P47811); experiment: Activation of p38 alpha MAPK in mouse BV2 cells assessed as p38 phosphorylation at 10 uM by Western blot analysis; assay type: cell-based; conditions: TDE = time-dependent effect
Sequence of Mitogen-activated protein kinase 14 (Mus musculus) (P47811 whole entry): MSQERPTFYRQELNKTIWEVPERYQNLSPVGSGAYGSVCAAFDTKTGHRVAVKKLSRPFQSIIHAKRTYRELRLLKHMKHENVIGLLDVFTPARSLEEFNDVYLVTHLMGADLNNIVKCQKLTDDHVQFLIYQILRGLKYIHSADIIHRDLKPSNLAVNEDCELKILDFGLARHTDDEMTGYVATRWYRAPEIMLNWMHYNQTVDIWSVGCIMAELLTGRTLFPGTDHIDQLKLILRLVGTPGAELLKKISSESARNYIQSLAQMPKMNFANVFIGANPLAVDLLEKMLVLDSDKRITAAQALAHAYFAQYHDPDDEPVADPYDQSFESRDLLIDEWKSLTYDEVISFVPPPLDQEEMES

[6] = target: Mitogen-activated protein kinase 14 (Mus musculus) (UniProt P47811); experiment: Activation of p38 alpha MAPK in mouse BV2 cells assessed as p38 phosphorylation at 1 uM incubated for 15 to 60 mins by Western blot analysis; assay type: cell-based
[7] = target: Mitogen-activated protein kinase 14 (Mus musculus) (UniProt P47811); experiment: Activation of p38 alpha MAPK in mouse BV2 cells assessed as p38 phosphorylation at 1 uM by Western blot analysis; assay type: cell-based; conditions: TDE = time-dependent effect
BV-2 [8] = experiment: Antiinflammatory activity against mouse BV2 cells assessed as reduction in LPS-induced iNOS protein expression at 1 uM by Western blot analysis; assay type: functional, cell-based

Row | Compound | GI50 (A549) [µM] | GI50 (HBL-100) [µM] | GI50 (HeLa) [µM] | GI50 (SW1573) [µM] | GI50 (T47D) [µM] | GI50 (WiDr) [µM] | CAC [1] [µM] | EC50 (Leishmania donovani) [µM] | EC50 (THP-1) [µM] | Activity (BV-2 [2]) | Activity (BV-2 [3]) | Activity (BV-2 [4]) | Activity [5] | Activity [6] | Activity [7] | Activity (BV-2 [8])
1 | O=C(CCC(F)(F)C(F)(F)C(F)(F)C(F)(F)F)NCCCCCCCCCN[C@@H]1[C@H](O)[C@@H](O)[C@H](O)[C@H]2COC(=O)N21 | > 100 | > 100 | > 100 | > 100 | > 100 | > 100 | 77.9 | > 40 | > 200 | – | – | – | – | – | – | –
2 | O=C(CCC(F)(F)C(F)(F)C(F)(F)C(F)(F)C(F)(F)C(F)(F)F)NCCCCCCCCCN[C@@H]1[C@H](O)[C@@H](O)[C@H](O)[C@H]2COC(=O)N21 | 12 | 16 | 12 | 14 | 11 | 13 | 22 | 24.6 | 65 | Non-Toxic | Active | Active | Tde | – | – | –
3 | CCCCCCCCCCCCS(=O)(=O)[C@@H]1[C@H](O)[C@@H](O)[C@@H](O)[C@H]2COC(=O)N21 | – | – | – | – | – | – | – | – | – | – | – | – | – | Active | – | –
4 | O=C(CCC(F)(F)C(F)(F)C(F)(F)C(F)(F)C(F)(F)C(F)(F)F)NCCCCCCCCCN[C@@H]1[C@H](O)[C@@H](O)[C@@H](O)[C@H]2COC(=O)N21 | 17 | 16 | 10 | 14 | 15 | 17 | 14 | 27.2 | 56.6 | Non-Toxic | Active | – | – | – | Tde | Active
5 | O=C(CCC(F)(F)C(F)(F)C(F)(F)C(F)(F)F)NCCCCCCCCCN[C@@H]1[C@H](O)[C@@H](O)[C@@H](O)[C@H]2COC(=O)N21 | 76 | > 100 | 45 | > 100 | 96 | > 100 | 118 | > 40 | > 200 | – | – | – | – | – | – | –
6 | O=C(CCC(F)(F)C(F)(F)C(F)(F)C(F)(F)C(F)(F)C(F)(F)C(F)(F)C(F)(F)F)NCCCCCCCCCN[C@@H]1[C@H](O)[C@@H](O)[C@H](O)[C@H]2COC(=O)N21 | > 100 | > 100 | > 100 | > 100 | > 100 | > 100 | 6.9 | 30 | 152 | – | – | – | – | – | – | –
7 | CCCCCCCCCCCCCCCCOP(=O)([O-])OCC[N+](C)(C)C [MILTEFOSINE] | – | – | – | – | – | – | – | 0.44 | – | – | – | – | – | – | – | –
8 | O=C(CCC(F)(F)C(F)(F)C(F)(F)C(F)(F)C(F)(F)C(F)(F)C(F)(F)C(F)(F)F)NCCCCCCCCCN[C@@H]1[C@H](O)[C@@H](O)[C@@H](O)[C@H]2COC(=O)N21 | > 100 | > 100 | > 100 | > 100 | > 100 | > 100 | 13 | 22.9 | 124 | – | – | – | – | – | – | –
